For twelve molecules, IC50, Ratio IC50 and inhibition results are on record in ChEMBL document CHEMBL4118067, “Isosteroidal alkaloids as potent dual-binding site inhibitors of both acetylcholinesterase and butyrylcholinesterase from the bulbs of Fritillaria walujewii” (Eur J Med Chem, 2017).

The target in one assay is Acetylcholinesterase (Electrophorus electricus, UniProt O42275). The experiment in a line: Inhibition of electric eel AChE using acetylthiocholine iodide as substrate preincubated for 15 mins followed by substrate addition measured for 30 mins by Ellman's method. (In Ellman's method for cholinesterases, released thiocholine reacts with DTNB.)
For a further assay, the target named is Cholinesterase (Equus caballus, UniProt P81908). The experiment in a line: Inhibition of equine serum BChE using butyrylthiocholine iodide as substrate preincubated for 15 mins followed by substrate addition measured for 30 mins by Ellman's method.
A short description of assay [1]: Selectivity index, ratio of IC50 for equine serum BChE to IC50 for electric eel AChE.
Assay [2] addresses Acetylcholinesterase (Electrophorus electricus) (UniProt O42275). Kind of assay: Reversible inhibition of electric eel AChE at 6 to 16 uM using acetylthiocholine iodide as substrate preincubated for 15 mins followed by substrate addition measured for 30 mins by Ellman's method.
The target is the same in assay [3]. Kind of assay: Mixed-type inhibition of electric eel AChE at 6 to 24 uM using acetylthiocholine iodide as substrate preincubated for 15 mins followed by substrate addition measured for 30 mins by Lineweaver-Burk plot method.
Assay [4] has the same target. Kind of assay: Reversible inhibition of electric eel AChE at 2 to 10 uM using acetylthiocholine iodide as substrate preincubated for 15 mins followed by substrate addition measured for 30 mins by Ellman's method.
Assay [5] shares this target. The experiment in a line: Mixed-type inhibition of electric eel AChE at 8 to 32 uM using acetylthiocholine iodide as substrate preincubated for 15 mins followed by substrate addition measured for 30 mins by Lineweaver-Burk plot method.
Assay [6] has the same target. Kind of assay: Mixed-type inhibition of electric eel AChE at 7 to 28 uM using acetylthiocholine iodide as substrate preincubated for 15 mins followed by substrate addition measured for 30 mins by Lineweaver-Burk plot method.
Assay [7] has the same target. The experiment in a line: Mixed-type inhibition of electric eel AChE at 2 to 10 uM using acetylthiocholine iodide as substrate preincubated for 15 mins followed by substrate addition measured for 30 mins by Lineweaver-Burk plot method.
Assay [8] has the same target. The experiment in a line: Mixed-type inhibition of electric eel AChE at 4 to 16 uM using acetylthiocholine iodide as substrate preincubated for 15 mins followed by substrate addition measured for 30 mins by Lineweaver-Burk plot method.
Assay [9] has the same target. The experiment in a line: Reversible inhibition of electric eel AChE at 4 to 12 uM using acetylthiocholine iodide as substrate preincubated for 15 mins followed by substrate addition measured for 30 mins by Ellman's method.
For assay [10] the target is unchanged. Kind of assay: Mixed-type inhibition of electric eel AChE at 4 to 20 uM using acetylthiocholine iodide as substrate preincubated for 15 mins followed by substrate addition measured for 30 mins by Lineweaver-Burk plot method.

SMILES strings stand for the structures. Active and inactive are the calls of the source. The calls are words filed in the database; no cut-off is given here.

Cholinesterase, sequence (P81908 whole entry): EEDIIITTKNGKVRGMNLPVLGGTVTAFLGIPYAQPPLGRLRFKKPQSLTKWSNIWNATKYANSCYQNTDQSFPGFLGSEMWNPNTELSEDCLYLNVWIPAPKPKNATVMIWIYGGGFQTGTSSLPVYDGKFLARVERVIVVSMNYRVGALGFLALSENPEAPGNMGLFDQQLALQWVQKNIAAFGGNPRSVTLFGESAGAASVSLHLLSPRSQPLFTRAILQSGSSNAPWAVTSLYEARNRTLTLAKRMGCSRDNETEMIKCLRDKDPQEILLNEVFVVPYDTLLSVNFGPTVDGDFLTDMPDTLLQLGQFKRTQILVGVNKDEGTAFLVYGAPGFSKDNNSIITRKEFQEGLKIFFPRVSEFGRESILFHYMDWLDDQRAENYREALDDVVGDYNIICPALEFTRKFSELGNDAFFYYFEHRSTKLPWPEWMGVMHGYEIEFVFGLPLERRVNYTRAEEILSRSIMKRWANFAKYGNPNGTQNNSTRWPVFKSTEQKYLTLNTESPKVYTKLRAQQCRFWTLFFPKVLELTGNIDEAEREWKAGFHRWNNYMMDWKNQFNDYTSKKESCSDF
Acetylcholinesterase, sequence (O42275 whole entry): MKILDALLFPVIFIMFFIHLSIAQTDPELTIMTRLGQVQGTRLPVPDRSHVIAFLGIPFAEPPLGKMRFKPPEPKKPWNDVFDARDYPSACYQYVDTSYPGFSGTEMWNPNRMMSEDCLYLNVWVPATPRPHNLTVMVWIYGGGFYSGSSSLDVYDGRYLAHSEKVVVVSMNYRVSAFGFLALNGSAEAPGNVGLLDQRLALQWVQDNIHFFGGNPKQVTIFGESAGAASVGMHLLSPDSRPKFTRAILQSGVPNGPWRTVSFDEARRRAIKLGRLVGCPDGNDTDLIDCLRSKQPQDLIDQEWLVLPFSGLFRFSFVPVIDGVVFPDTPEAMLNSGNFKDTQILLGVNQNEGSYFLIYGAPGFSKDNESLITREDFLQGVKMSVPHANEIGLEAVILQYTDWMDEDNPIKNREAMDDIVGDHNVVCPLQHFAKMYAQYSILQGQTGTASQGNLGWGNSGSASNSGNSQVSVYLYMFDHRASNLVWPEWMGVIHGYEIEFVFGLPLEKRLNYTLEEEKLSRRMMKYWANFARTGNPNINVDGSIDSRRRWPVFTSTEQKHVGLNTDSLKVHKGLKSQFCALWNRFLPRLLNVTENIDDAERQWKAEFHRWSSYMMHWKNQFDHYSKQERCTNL
Acetylcholinesterase (Electrophorus electricus), sequence (O42275 24-633 limits assumed): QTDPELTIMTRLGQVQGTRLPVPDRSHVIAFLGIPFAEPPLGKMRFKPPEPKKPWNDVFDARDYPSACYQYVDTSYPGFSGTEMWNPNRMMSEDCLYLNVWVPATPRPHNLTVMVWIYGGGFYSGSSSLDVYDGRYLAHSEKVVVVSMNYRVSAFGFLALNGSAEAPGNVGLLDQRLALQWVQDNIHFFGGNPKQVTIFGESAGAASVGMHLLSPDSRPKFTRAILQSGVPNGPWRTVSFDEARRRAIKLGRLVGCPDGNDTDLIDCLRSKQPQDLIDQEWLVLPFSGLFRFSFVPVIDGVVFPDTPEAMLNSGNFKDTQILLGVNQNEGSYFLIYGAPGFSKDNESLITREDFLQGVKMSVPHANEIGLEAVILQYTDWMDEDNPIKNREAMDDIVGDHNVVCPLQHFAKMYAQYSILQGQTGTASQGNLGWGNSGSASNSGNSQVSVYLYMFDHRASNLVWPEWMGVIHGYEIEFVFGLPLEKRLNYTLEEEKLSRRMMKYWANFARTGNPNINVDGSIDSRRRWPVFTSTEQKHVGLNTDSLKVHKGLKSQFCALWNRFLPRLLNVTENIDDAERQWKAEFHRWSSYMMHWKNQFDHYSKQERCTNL

What is called IC50 is the concentration that gives 50% inhibition. As to `C[C@H]1CC[C@H]2[C@H](C)[C@@H]3CC[C@@H]4[C@@H](C[C@H]5[C@H]4CC(=O)[C@H]4C[C@@H](O[C@@H]6O[C@H](CO)[C@@H](O[C@@H]7O[C@H](CO)[C@@H](O)[C@H](O)[C@H]7O)[C@H](O)[C@H]6O)CC[C@@]45C)[C@@H]3CN2C1`, the IC50 stood at 9.88 µM against Acetylcholinesterase and 5.71 µM at Cholinesterase. The Ratio IC50 in assay [1] is 0.58. Besides, the inhibition result in assay [2] and in assay [3] was “Active” each time.
Take `C[C@H]1CC[C@@H]2N(C1)C[C@H]1[C@@H]3C[C@H]4[C@@H](CC(=O)[C@H]5C[C@@H](O)CC[C@@]54C)[C@@H]3CC[C@H]1[C@]2(C)O` [IMPERIALINE]: the IC50 against Acetylcholinesterase and at Cholinesterase was above 100 µM in each case.
In the case of `C[C@H]1CC[C@H]2[C@H](C)[C@H]3CC[C@@H]4[C@@H](C[C@H]5[C@H]4C[C@@H](O)[C@H]4C[C@@H](O)CC[C@@]45C)[C@@H]3CN2C1`, the IC50 on Acetylcholinesterase was determined as 45.8 µM; on Cholinesterase, 18.6 µM. The Ratio IC50 in assay [1] is 0.41.
For the molecule `C[C@H]1CC[C@@H]2N(C1)C[C@H]1[C@@H]3C[C@H]4[C@@H](CC(=O)[C@H]5C[C@@H](O[C@@H]6O[C@H](CO)[C@@H](O)[C@H](O)[C@H]6O)CC[C@@]54C)[C@@H]3CC[C@H]1[C@]2(C)O`, the IC50 against Acetylcholinesterase and against Cholinesterase was above 100 µM in each case.
In the case of `C[C@H]1CC[C@@H]2[C@@H](C)[C@@H]3CC[C@@H]4[C@@H](C[C@H]5[C@H]4C[C@@H](O)[C@H]4C[C@@H](O[C@@H]6O[C@H](CO)[C@@H](O)[C@H](O)[C@H]6O)CC[C@@]45C)[C@@H]3CN2C1`, the half-maximal inhibitory concentration (IC50) came out at 10.8 µM on Acetylcholinesterase and 3.89 µM against Cholinesterase. The Ratio IC50 in assay [1] was 0.36. In addition, the inhibition entry in assay [2] and in assay [3] was “Active” each time.
As to `C=C1C2(CC[C@H]3[C@@H]4CC(=O)[C@H]5C[C@@H](O)CC[C@]5(C)[C@H]4C[C@@]13O)O[C@@H]1C[C@H](C)CN[C@H]1[C@H]2C` (stereo partly drawn), the IC50 on Acetylcholinesterase was determined as 7.6 µM; on Cholinesterase it was 958 µM. The Ratio IC50 in assay [1] worked out at 126. Besides, the inhibition result in [4] and in assay [5] was “Active” in each case.
With `C[C@H]1CC[C@H]2[C@H](C)[C@@H]3CC[C@@H]4[C@@H](C[C@H]5[C@H]4CC(=O)[C@H]4C[C@@H](O[C@@H]6O[C@H](CO)[C@@H](O)[C@H](O)[C@H]6O)CC[C@@]45C)[C@@H]3CN2C1`, the 50% inhibitory concentration (IC50) against Acetylcholinesterase was found to be 11.5 µM; against Cholinesterase it was 6.8 µM. Further, the Ratio IC50 in assay [1] came to 0.59. For the same molecule, the inhibition result in [2] and in [6] was “Active” each time.
Take `C[C@H]1CC[C@@H]2[C@@H](C)[C@@H]3CC[C@@H]4[C@@H](C[C@H]5[C@H]4C[C@H](O)[C@H]4C[C@@H](O[C@@H]6O[C@H](CO)[C@@H](O)[C@H](O)[C@H]6O)CC[C@@]45C)[C@@H]3CN2C1`: the IC50 against Acetylcholinesterase stood at 51.5 µM; against Cholinesterase, 13.5 µM. Besides, the Ratio IC50 in assay [1] stood at 0.26.
As to `C[C@H]1CC[C@@H]2[C@@H](C)[C@@H]3CC[C@@H]4[C@@H](C[C@H]5[C@H]4C[C@@H](O)[C@H]4C[C@@H](O)CC[C@@]45C)[C@@H]3CN2C1`, the IC50 was 5.85 µM at Acetylcholinesterase and 2.08 µM at Cholinesterase. Also, the Ratio IC50 in assay [1] was 0.36. Moreover, the inhibition entry in assay [4] and in [7] was “Active” each time.
Regarding `C[C@H]1CC[C@@H]2[C@@H](C)[C@@H]3CC[C@@H]4[C@@H](C[C@H]5[C@H]4C[C@H](O)[C@H]4C[C@@H](O)CC[C@@]45C)[C@@H]3CN2C1`, the IC50 on Acetylcholinesterase was found to be 7.19 µM; against Cholinesterase it was 2.58 µM. For the same molecule, in assay [1], the Ratio IC50 was determined as 0.36. Further, the inhibition entry in assay [4] and in assay [8] was “Active” throughout.
Consider `CC1=C2C[C@H]3[C@@H](CC(=O)[C@H]4C[C@@H](O)CC[C@@]43C)[C@@H]2CCC12O[C@@H]1C[C@H](C)CN[C@H]1[C@H]2C` (stereo partly drawn), for which the IC50 is 94 µM against Acetylcholinesterase and 153 µM against Cholinesterase. The Ratio IC50 in assay [1] is 1.63.
Regarding `C[C@H]1CC[C@H]2[C@H](C)[C@@H]3CC[C@@H]4[C@@H](C[C@H]5[C@H]4CC(=O)[C@H]4C[C@@H](O)CC[C@@]45C)[C@@H]3CN2C1`, the IC50 against Acetylcholinesterase was 8.37 µM; at Cholinesterase, 3.05 µM. In addition, the Ratio IC50 in assay [1] was determined as 0.36. In addition, the inhibition result in assay [9] and in assay [10] was “Active” each time.
